From ChEMBL document CHEMBL4765259, “Synthesis and biological evaluation of novel shikonin-benzo[b]furan derivatives as tubulin polymerization inhibitors targeting the colchicine binding site” (Eur J Med Chem, 2020)
pIC50: −log10 of the molar value. Each block holds one molecule with its values, some of them ahead of it.

What was measured:
[1] = tested on: HepG2; test: Antiproliferative activity against human HepG2 cells incubated for 48 hrs by MTT assay; format: functional, cell-based; conditions: HepG2, 48 h
[2] = tested on: HT-29; test: Antiproliferative activity against human HT29 cells incubated for 48 hrs by MTT assay; format: functional, cell-based; conditions: HT-29, 48 h
[3] = Antiproliferative activity against human HEK293T cells incubated for 48 hrs by MTT assay; format: cell-based, HEK-293T
[4] = Antiproliferative activity against human LO2 cells incubated for 48 hrs by MTT assay; format: cell-based, L02
[5] = tested on: K562; test: Antiproliferative activity against drug resistant human K562 cells incubated for 48 hrs by MTT assay; format: functional, cell-based; conditions: K562, 48 h
[6] = Inhibition of tubulin polymerization (unknown origin) measured every 2 mins for 60 mins by spectrophotometric method; parameters: species or system Homo sapiens
[7] = organism: Homo sapiens; test: Inhibition of [3H]colchicine binding to tubulin (unknown origin) at 2 uM incubated for 2 hrs by scintillation counting method relative to control
[8] = organism: Homo sapiens; test: Inhibition of [3H]colchicine binding to tubulin (unknown origin) at 4 uM incubated for 2 hrs by scintillation counting method relative to control
[9] = tested on: HCT-116; test: cells; conditions: Homo sapiens, HCT-116, 48 h
Description: Antiproliferative activity against human HCT116 cells incubated for 48 hrs by MTT assay

[10] = tested on: MDA-MB-231; test: cells; conditions: Homo sapiens, MDA-MB-231, 48 h
[11] = tested on: A549; test: cells; conditions: Homo sapiens, A549, 48 h
[12] = tested on: MCF7; test: cells; conditions: Homo sapiens, MCF7, 48 h
[13] = tested on: MCF7; test: cells; conditions: Homo sapiens, MCF7, 48 h; remark: listed apart in the source
Description: Antiproliferative activity against drug-resistant human MCF7 cells incubated for 48 hrs by MTT assay

[14] = tested on: K562; test: cells; conditions: Homo sapiens, K562, 48 h
Description: Antiproliferative activity against human K562 cells incubated for 48 hrs by MTT assay

[15] = tested on: HT-29; test: Cell cycle arrest in human HT29 cells assessed as cell accumulation at G1 phase at […] incubated for 24 hrs by propidium iodide staining based flow cytometry (reference value: 70.33 %); format: functional; conditions: dose 0.25 µM
[16] = tested on: HT-29; test: Cell cycle arrest in human HT29 cells assessed as cell accumulation at G2 phase at […] incubated for 24 hrs by propidium iodide staining based flow cytometry (reference value: 12.53 %); format: functional; conditions: dose 0.25 µM
[17] = tested on: HT-29; test: Cell cycle arrest in human HT29 cells assessed as cell accumulation at S phase at […] incubated for 24 hrs by propidium iodide staining based flow cytometry (reference value: 17.15 %); format: functional; conditions: dose 0.25 µM
[18] = tested on: HT-29; test: Cell cycle arrest in human HT29 cells assessed as cell accumulation at G1 phase at 0.5 uM incubated for 24 hrs by propidium iodide staining based flow cytometry (reference value: 70.33 %); format: functional
[19] = tested on: HT-29; test: Cell cycle arrest in human HT29 cells assessed as cell accumulation at G2 phase at 0.5 uM incubated for 24 hrs by propidium iodide staining based flow cytometry (reference value: 12.53 %); format: functional
[20] = tested on: HT-29; test: Cell cycle arrest in human HT29 cells assessed as cell accumulation at S phase at 0.5 uM incubated for 24 hrs by propidium iodide staining based flow cytometry (reference value: 17.15 %); format: functional
[21] = tested on: HT-29; test: Cell cycle arrest in human HT29 cells assessed as cell accumulation at G1 phase at 1 uM incubated for 24 hrs by propidium iodide staining based flow cytometry (reference value: 70.33 %); format: functional
[22] = tested on: HT-29; test: Cell cycle arrest in human HT29 cells assessed as cell accumulation at G2 phase at 1 uM incubated for 24 hrs by propidium iodide staining based flow cytometry (reference value: 12.53 %); format: functional
[23] = tested on: HT-29; test: Cell cycle arrest in human HT29 cells assessed as cell accumulation at S phase at 1 uM incubated for 24 hrs by propidium iodide staining based flow cytometry (reference value: 17.15 %); format: functional
[24] = tested on: HT-29; test: Induction of apoptosis in human HT-29 cells assessed as viable cells at […] measured after 24 hrs by Annexin V-FITC/propidium iodide staining based flow cytometry (reference value: 97.7 %); format: functional; conditions: dose 0.25 µM, read-out: Activity
[25] = tested on: HT-29; test: Induction of apoptosis in human HT-29 cells assessed as early apoptotic cells at […] measured after 24 hrs by Annexin V-FITC/propidium iodide staining based flow cytometry (reference value: 1.1 %); format: functional; conditions: dose 0.25 µM
[26] = tested on: HT-29; test: Induction of apoptosis in human HT-29 cells assessed as late apoptotic cells at […] measured after 24 hrs by Annexin V-FITC/propidium iodide staining based flow cytometry (reference value: 0.5 %); format: functional; conditions: dose 0.25 µM
[27] = tested on: HT-29; test: Induction of apoptosis in human HT-29 cells assessed as necrotic cells at […] measured after 24 hrs by Annexin V-FITC/propidium iodide staining based flow cytometry (reference value: 0.7 %); format: functional; conditions: dose 0.25 µM
[28] = tested on: HT-29; test: Induction of apoptosis in human HT-29 cells assessed as viable cells at 0.5 uM measured after 24 hrs by Annexin V-FITC/propidium iodide staining based flow cytometry (reference value: 97.7 %); format: functional; conditions: read-out: Activity
[29] = tested on: HT-29; test: Induction of apoptosis in human HT-29 cells assessed as early apoptotic cells at 0.5 uM measured after 24 hrs by Annexin V-FITC/propidium iodide staining based flow cytometry (reference value: 1.1 %); format: functional
[30] = tested on: HT-29; test: Induction of apoptosis in human HT-29 cells assessed as late apoptotic cells at 0.5 uM measured after 24 hrs by Annexin V-FITC/propidium iodide staining based flow cytometry (reference value: 0.5 %); format: functional
[31] = tested on: HT-29; test: Induction of apoptosis in human HT-29 cells assessed as necrotic cells at 0.5 uM measured after 24 hrs by Annexin V-FITC/propidium iodide staining based flow cytometry (reference value: 0.7 %); format: functional
[32] = tested on: HT-29; test: Induction of apoptosis in human HT-29 cells assessed as viable cells at 1 uM measured after 24 hrs by Annexin V-FITC/propidium iodide staining based flow cytometry (reference value: 97.7 %); format: functional; conditions: read-out: Activity
[33] = tested on: HT-29; test: Induction of apoptosis in human HT-29 cells assessed as early apoptotic cells at 1 uM measured after 24 hrs by Annexin V-FITC/propidium iodide staining based flow cytometry (reference value: 1.1 %); format: functional
[34] = tested on: HT-29; test: Induction of apoptosis in human HT-29 cells assessed as late apoptotic cells at 1 uM measured after 24 hrs by Annexin V-FITC/propidium iodide staining based flow cytometry (reference value: 0.5 %); format: functional
[35] = tested on: HT-29; test: Induction of apoptosis in human HT-29 cells assessed as necrotic cells at 1 uM measured after 24 hrs by Annexin V-FITC/propidium iodide staining based flow cytometry (reference value: 0.7 %); format: functional

Structure (SMILES): COc1ccc(/C=C\c2cc(OC)c(OC)c(OC)c2)cc1O [COMBRETASTATIN A4]
pIC50 [1]: 6.57
pIC50 [2]: 6.51
CC50 at 48 h [3]: 1440 nM
CC50 at 48 h [4]: 360 nM
pIC50 [5]: 5.21
pIC50 [6]: 5.95
inhibition [7]: 81.5%
inhibition [8]: 93%
pIC50 [9]: 6.96
pIC50 [10]: 7.05
pIC50 [11]: 6.64
pIC50 [12]: 6.60
pIC50 [13]: 6.31
pIC50 [14]: 6.21

pIC50 [5]: 4.79
pIC50 [14]: 6.68
Structure (SMILES): COc1cccc2c1C(=O)c1c(O)c3c(c(O)c1C2=O)C[C@@](O)(C(=O)CO)C[C@@H]3O[C@H]1C[C@H](N)[C@H](O)[C@H](C)O1 [DOXORUBICIN]

pIC50 [1]: 5.53
pIC50 [2]: 5.55
pIC50 [5]: 3.92
pIC50 [9]: 5.61
pIC50 [10]: 5.56
pIC50 [11]: 4.99
pIC50 [12]: 5.27
pIC50 [13]: 4.63
pIC50 [14]: 4.69
Structure (SMILES): CC(C)=CC[C@@H](O)C1=CC(=O)c2c(O)ccc(O)c2C1=O [SHIKONIN]
CC50 at 48 h [3]: 7000 nM
CC50 at 48 h [4]: 11800 nM
Activity [15]: 52.4%
Activity [16]: 19.5%
Activity [17]: 28.1%
Activity [18]: 50.02%
Activity [19]: 22.9%
Activity [20]: 27.08%
Activity [21]: 32.11%
Activity [22]: 24.51%
Activity [23]: 43.57%
viability at […] [24]: 91%
Activity [25]: 7.1%
Activity [26]: 0.7%
Activity [27]: 1.2%
viability at 0.5 µM [28]: 87%
Activity [29]: 11.9%
Activity [30]: 0.4%
Activity [31]: 0.7%
viability at 1 µM [32]: 76.7%
Activity [33]: 19.5%
Activity [34]: 3.2%
Activity [35]: 0.6%
